# Measurements reported in US11999727B2 (Tango Therapeutics, Inc., priority 2020, dated 2024).
# Like-named read-outs stand apart in the source and are kept apart here.
# How the values were obtained:
# PRMT5 [1] = biological target: T1, PRMT5 (Homo sapiens, UniProt O14744); assay: PRMT5 biochemical IC50 assay with SAM as cofactor; details: PRMT5, SAM as cofactor; read-out: SAM IC50
# T1 construct: purchased Viva (custom protein)
# PRMT5 [2] = biological target: T1, PRMT5; assay: PRMT5 biochemical IC50 assay with no cofactor; details: PRMT5, no cofactor
# Text: Table 1 indicates IC50 values (μM) against PRMT5 for exemplary compounds in the presence of SAM as cofactor, with no cofactor, and with MTA as cofactor, respectively (columns 4-6). […] Ki values can be calculated from the IC50 values as described in the Examples section. As detailed in the Examples section, for the assay performed in the presence of SAM, IC50=Ki×1.5 (Ki=IC50/1.5).
# PRMT5 [3] = biological target: T1, PRMT5; assay: PRMT5 biochemical IC50 assay with MTA as cofactor; details: PRMT5, MTA as cofactor; read-out: MTA IC50
# [4] = tested on: HAP1 MTAP-intact cell line; assay: SDMA in-cell western assay, HAP1 MTAP-intact; assay type: cell-based; details: HAP1 MTAP-intact, read-out: MTAP HAP1 intact IC50
# Procedure, shortened: (§1)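 Compounds were tested in HAP1 cells differing only in MTAP status (endogenous expression versus null). Cellular SDMA levels were then measured by in-cell western, giving an IC50 in each background.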
# [5] = tested on: HAP1 MTAP-deleted cell line; assay: SDMA in-cell western assay, HAP1 MTAP-deleted; assay type: cell-based; details: for IC50: HAP1 MTAP-deleted; for MTAP intact/deleted ratio: IC50 ratio HAP1 MTAP-intact / HAP1 MTAP-deleted
# Procedure, shortened: as §1
# [6] = tested on: HAP1 MTAP-deleted cell line; assay: Viability assay, MTAP-deleted cell line; assay type: cell-based; details: MTAP-deleted cell line, read-out: HAP1 MTAP deleted viability
# Text: Table 1 additionally indicates IC50 values in a viability assay for the MTAP-deleted cell line (column 10), indicating the effect of treatment with compound on cell survival.
# [7] = read-out: No Cofactor/ rel IC50
# [8] = Homo sapiens, HAP1, SDMA in-cell western
# [9] = Homo sapiens, HAP1, SDMA in-cell western, read-out: HAP 1 MTAP deleted IC50
# [10] = Homo sapiens, HAP1, viability assay
# [11] = SDMA in-cell western, read-out: HAP 1 MTAP deleted IC50
# [12] = Homo sapiens, HAP1, SDMA in-cell western, read-out: HAP1 MTAP deleted IC50
# [13] = SDMA in-cell western, read-out: HAP1 MTAP deleted IC50
# T1 sequence (O14744 whole entry): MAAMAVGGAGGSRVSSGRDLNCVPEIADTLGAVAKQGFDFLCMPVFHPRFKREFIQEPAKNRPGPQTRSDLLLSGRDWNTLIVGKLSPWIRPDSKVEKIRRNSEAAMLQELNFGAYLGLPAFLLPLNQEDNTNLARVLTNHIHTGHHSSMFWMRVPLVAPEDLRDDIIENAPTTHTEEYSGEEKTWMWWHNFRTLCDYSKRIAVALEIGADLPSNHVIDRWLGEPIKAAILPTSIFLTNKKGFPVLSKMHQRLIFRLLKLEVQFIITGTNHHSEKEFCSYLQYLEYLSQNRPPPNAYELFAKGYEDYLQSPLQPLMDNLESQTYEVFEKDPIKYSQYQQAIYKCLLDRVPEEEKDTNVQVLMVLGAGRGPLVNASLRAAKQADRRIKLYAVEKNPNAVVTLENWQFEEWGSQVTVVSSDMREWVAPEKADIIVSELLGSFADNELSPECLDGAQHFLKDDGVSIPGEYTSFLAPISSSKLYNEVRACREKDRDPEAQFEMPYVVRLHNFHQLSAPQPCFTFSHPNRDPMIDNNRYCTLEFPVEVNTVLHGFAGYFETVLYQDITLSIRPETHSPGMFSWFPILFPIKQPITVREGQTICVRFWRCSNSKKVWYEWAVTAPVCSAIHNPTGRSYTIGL
# T1 sequence (Q9BQA1 whole entry partner): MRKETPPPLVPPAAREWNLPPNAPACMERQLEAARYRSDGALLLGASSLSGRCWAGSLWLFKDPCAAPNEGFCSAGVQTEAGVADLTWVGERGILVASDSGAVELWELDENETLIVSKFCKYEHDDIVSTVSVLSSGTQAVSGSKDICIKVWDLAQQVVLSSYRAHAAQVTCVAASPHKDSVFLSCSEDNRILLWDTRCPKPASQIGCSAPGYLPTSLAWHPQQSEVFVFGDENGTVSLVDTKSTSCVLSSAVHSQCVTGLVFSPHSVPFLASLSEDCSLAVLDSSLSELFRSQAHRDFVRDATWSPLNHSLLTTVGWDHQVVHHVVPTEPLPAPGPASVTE
SMILES,IC50 (PRMT5 [1]),IC50 (PRMT5 [2]; [7]),IC50 (PRMT5 [3]),"IC50 [4, 8]","IC50 [5, 9]","IC50 [5, 11]",IC50 ([4]; SDMA in-cell western),IC50 (PRMT5 [2]; read-out: No Cofactor/rel IC50),"IC50 [5, 12]","IC50 [5, 13]",MTAP intact/deleted ratio ([5]; SDMA in-cell western),"IC50 [6, 10]",IC50 ([6]; viability assay)
"C[C@H]1CC[C@H](c2cccnc2)N(C(=O)C(=O)Nc2cncc(C(N)=O)c2)C1 (single isomer, unassigned) [Compound 105]",> 0.5 µM,> 0.5 µM,> 0.5 µM,> 1 µM,> 1 µM,–,–,–,–,–,C (an IC50 ratio of less than 3 fold),> 10 µM,–
"C[C@@H]1CC[C@@H](c2cccnc2)N(C(=O)C(=O)Nc2cncc(C(N)=O)c2)C1 (single isomer, unassigned) [Compound 106]",< 0.05 µM,0.05 to 0.5 µM,< 0.05 µM,> 1 µM,< 0.1 µM,–,–,–,–,–,A (an IC50 ratio greater than or equal to 10 fold),1 to 10 µM,–
"NC(=O)c1cncc(NC(=O)C(=O)N2CCCCC2C2CCCCC2)c1 (single isomer, unassigned) [Compound 113, 5-(2-(2-cyclohexylpiperidin-1-yl)-2-oxoacetamido)nicotinamide]",0.05 to 0.5 µM,0.05 to 0.5 µM,< 0.05 µM,–,–,< 0.1 µM,> 1 µM,–,–,–,A (an IC50 ratio greater than or equal to 10 fold),–,1 to 10 µM
"Cc1cc(NC(=O)C(=O)N2C[C@H](C)CC[C@H]2c2cccs2)cnc1N (single isomer, unassigned) [Compound 115]",0.05 to 0.5 µM,< 0.05 µM,< 0.05 µM,0.1 to 1 µM,< 0.1 µM,–,–,–,–,–,A (an IC50 ratio greater than or equal to 10 fold),< 1 µM,–
"Cc1cc(NC(=O)C(=O)N2C[C@@H]3CC[C@@H](C3)[C@@H]2c2cccs2)cnc1N (single isomer, unassigned) [Compound 137]",0.05 to 0.5 µM,0.05 to 0.5 µM,< 0.05 µM,> 1 µM,< 0.1 µM,–,–,–,–,–,A (an IC50 ratio greater than or equal to 10 fold),> 10 µM,–
"Cc1cc(NC(=O)C(=O)N2CCCC[C@H]2C(C)C)cnc1N (single isomer, unassigned) [Compound 192]",0.05 to 0.5 µM,–,< 0.05 µM,> 1 µM,–,–,–,0.05 to 0.5 µM,0.1 to 1 µM,–,A (an IC50 ratio greater than or equal to 10 fold),> 10 µM,–
"NC(=O)c1cncc(NC(=O)C(=O)N2C[C@H]3CC[C@H](C3)[C@H]2c2ccccc2)c1 (single isomer, unassigned) [Compound 194]",> 0.5 µM,–,> 0.5 µM,> 1 µM,–,–,–,> 0.5 µM,> 1 µM,–,C (an IC50 ratio of less than 3 fold),> 10 µM,–
"Cc1ncc(NC(=O)C(=O)N2C[C@H](C)CC[C@H]2c2ccccc2)cc1C(N)=O (single isomer, unassigned) [Compound 196]",> 0.5 µM,–,> 0.5 µM,> 1 µM,–,–,–,> 0.5 µM,> 1 µM,–,C (an IC50 ratio of less than 3 fold),> 10 µM,–
"COc1ncc(NC(=O)C(=O)N2CCCCC2c2ccccc2)cc1C(N)=O (single isomer, unassigned) [Compound 199, 2-methoxy-5-(2-oxo-2-(2-phenylpiperidin-1-yl)acetamido)nicotinamide]",> 0.5 µM,–,0.05 to 0.5 µM,> 1 µM,–,–,–,> 0.5 µM,–,> 1 µM,C (an IC50 ratio of less than 3 fold),> 10 µM,–
"COc1ncc(NC(=O)C(=O)N2CCCCC2c2ccccc2)cc1C(N)=O (single isomer, unassigned) [Compound 202, 2-methoxy-5-(2-oxo-2-(2-phenylpiperidin-1-yl)acetamido)nicotinamide]",0.05 to 0.5 µM,–,< 0.05 µM,–,–,–,> 1 µM,0.05 to 0.5 µM,–,0.1 to 1 µM,A (an IC50 ratio greater than or equal to 10 fold),–,> 10 µM

# The next lines start with results.
IC50 (PRMT5 [1]),IC50 (PRMT5 [2]; [7]),IC50 (PRMT5 [3]),"IC50 [4, 8]","IC50 [5, 9]","IC50 [5, 11]",IC50 ([4]; SDMA in-cell western),IC50 (PRMT5 [2]; read-out: No Cofactor/rel IC50),"IC50 [5, 12]","IC50 [5, 13]",SMILES,MTAP intact/deleted ratio ([5]; SDMA in-cell western),"IC50 [6, 10]",IC50 ([6]; viability assay)
> 0.5 µM,> 0.5 µM,> 0.5 µM,> 1 µM,–,> 1 µM,–,–,–,–,"NC(=O)c1cncc(NC(=O)C(=O)N2CCCCC2C2CCCCC2)c1 (single isomer, unassigned) [Compound 108, 5-(2-(2-cyclohexylpiperidin-1-yl)-2-oxoacetamido)nicotinamide]",C (an IC50 ratio of less than 3 fold),–,> 10 µM
> 0.5 µM,> 0.5 µM,0.05 to 0.5 µM,> 1 µM,0.1 to 1 µM,–,–,–,–,–,"C[C@H]1CC[C@H](C2CCCCC2)N(C(=O)C(=O)Nc2cncc(C(N)=O)c2)C1 (single isomer, unassigned) [Compound 117]",A (an IC50 ratio greater than or equal to 10 fold),> 10 µM,–
0.05 to 0.5 µM,0.05 to 0.5 µM,< 0.05 µM,> 1 µM,< 0.1 µM,–,–,–,–,–,"C[C@H]1CC[C@@H](C2CCCCC2)N(C(=O)C(=O)Nc2cncc(C(N)=O)c2)C1 (single isomer, unassigned) [Compound 121]",A (an IC50 ratio greater than or equal to 10 fold),1 to 10 µM,–
> 0.5 µM,> 0.5 µM,> 0.5 µM,> 1 µM,> 1 µM,–,–,–,–,–,"Cc1cc(NC(=O)C(=O)N2C[C@H]3CC[C@H](C3)[C@H]2c2cccs2)cnc1N (single isomer, unassigned) [Compound 134]",C (an IC50 ratio of less than 3 fold),> 10 µM,–
0.05 to 0.5 µM,0.05 to 0.5 µM,< 0.05 µM,0.1 to 1 µM,< 0.1 µM,–,–,–,–,–,"Cc1cc(NC(=O)C(=O)N2C[C@H](C)CC[C@H]2C2CCCCC2)cnc1N (single isomer, unassigned) [Compound 148]",A (an IC50 ratio greater than or equal to 10 fold),1 to 10 µM,–
0.05 to 0.5 µM,–,< 0.05 µM,> 1 µM,–,–,–,0.05 to 0.5 µM,< 0.1 µM,–,"CC1(C)CCC[C@@H]2CN(C(=O)C(=O)Nc3cncc(C(N)=O)c3)CC[C@H]21 (single isomer, unassigned) [Compound 193]",A (an IC50 ratio greater than or equal to 10 fold),1 to 10 µM,–
0.05 to 0.5 µM,–,0.05 to 0.5 µM,> 1 µM,–,–,–,> 0.5 µM,> 1 µM,–,"CC1(C)CCC[C@H]2CN(C(=O)C(=O)Nc3cncc(C(N)=O)c3)CC[C@@H]21 (single isomer, unassigned) [Compound 197]",C (an IC50 ratio of less than 3 fold),> 10 µM,–
0.05 to 0.5 µM,–,< 0.05 µM,0.1 to 1 µM,–,–,–,< 0.05 µM,< 0.1 µM,–,"C[C@H]1CC[C@H](c2cccs2)N(C(=O)C(=O)Nc2cncc(C(N)=O)c2)C1 (single isomer, unassigned) [Compound 198]",A (an IC50 ratio greater than or equal to 10 fold),< 1 µM,–
0.05 to 0.5 µM,–,< 0.05 µM,> 1 µM,–,–,–,0.05 to 0.5 µM,< 0.1 µM,–,"Cc1ncc(NC(=O)C(=O)N2C[C@@H](C)CC[C@@H]2c2ccccc2)cc1C(N)=O (single isomer, unassigned) [Compound 200]",A (an IC50 ratio greater than or equal to 10 fold),1 to 10 µM,–
> 0.5 µM,–,> 0.5 µM,> 1 µM,–,–,–,> 0.5 µM,> 1 µM,–,"C[C@@H]1CC[C@@H](c2cccs2)N(C(=O)C(=O)Nc2cncc(C(N)=O)c2)C1 (single isomer, unassigned) [Compound 201]",C (an IC50 ratio of less than 3 fold),> 10 µM,–
> 0.5 µM,–,0.05 to 0.5 µM,> 1 µM,–,–,–,> 0.5 µM,> 1 µM,–,"Cc1cc(NC(=O)C(=O)N2CCCC[C@@H]2C(C)C)cnc1N (single isomer, unassigned) [Compound 204]",C (an IC50 ratio of less than 3 fold),> 10 µM,–
0.05 to 0.5 µM,–,0.05 to 0.5 µM,> 1 µM,–,–,–,> 0.5 µM,> 1 µM,–,"NC(=O)c1cncc(NC(=O)C(=O)N2C[C@@H]3CC[C@@H](C3)[C@@H]2c2ccccc2)c1 (single isomer, unassigned) [Compound 205]",B (an IC50 ratio greater than or equal to 3 fold but lower than 10 fold),> 10 µM,–
